Article PMC10791743, “Selective CK1α degraders exert antiproliferative activity against a broad range of human cancer cell lines” (Nature Communications, 2024)

How the values were obtained:
Test in all cases: cells
Design in all cases: Oncolines panel cell viability, ATPlite 1Step luminescence, duplicate 9-point dose response, IC50
[1] = tested on: NCI-H661; conditions: Homo sapiens, NCI-H661; 72 h viability; read-out: SJ3149
Experimental: (§1) Cell viability assays were performed as previously described. In brief, cells were seeded in a 384-well plate at an optimized density. The starting cell number was determined after 24 h incubation by adding ATPlite 1Step (Perkin Elmer, Groningen, the Netherlands) to each well and recording luminescence on an Envision multimode reader (Perkin Elmer, Waltham, MA). After the addition of a duplicate 9-point dilution series of SJ3149, cells were incubated for another 72 h, followed by cell counting using ATPlite 1Step. The dilution series ranged from 3.2 to 31,600 nM or was diluted 100-fold for the most sensitive cell lines to ideally capture the complete dose–response curve. Percentage viability was determined at each compound concentration by relating the observed signal to a vehicle-treated control, that is, medium containing 0.4% (v/v) DMSO. Compound IC50 values were calculated by fitting a 4-parameter logistic curve to the percentage viability values using IDBS XLfit5 (IDBS, Guildford, UK). The IC50 was limited to the maximum tested compound concentration when the IC50 exceeded the maximum tested concentration. […] To evaluate the compound’s effect and potential therapeutic application across a diverse range of human cancers, we profiled SJ3149 in Oncolines® panel consisting of 115 human cancer cell lines, of which 86 were solid tumor and 29 hematologic cell lines, including MOLM-13. Effect on cell viability was monitored using ATPLite™ (Perkin Elmer), which measures intracellular ATP content as an indirect readout of cell number, like CellTiter Glo.

[2] = tested on: CCF-STTG1; conditions: Homo sapiens, CCF-STTG1; 72 h viability; read-out: SJ3149
Experimental: as §1

[3] = tested on: U-87 MG; conditions: Homo sapiens, U-87 MG; 72 h viability; read-out: SJ3149
Experimental: as §1

[4] = tested on: BxPC-3; conditions: Homo sapiens, BXPC-3; 72 h viability; read-out: SJ3149
Experimental: as §1

[5] = tested on: SNU-5; conditions: Homo sapiens, SNU-5; 72 h viability; read-out: SJ3149
Experimental: as §1

[6] = tested on: HT; conditions: Homo sapiens, HT; 72 h viability; read-out: SJ3149
Experimental: as §1

[7] = tested on: SW620; conditions: Homo sapiens, SW-620; 72 h viability; read-out: SJ3149
Experimental: as §1

[8] = tested on: C-33 A; conditions: Homo sapiens, C-33-A; 72 h viability; read-out: SJ3149
Experimental: as §1

[9] = tested on: MeWo; conditions: Homo sapiens, MeWo; 72 h viability; read-out: SJ3149
Experimental: as §1

[10] = tested on: MG-63; conditions: Homo sapiens, MG-63; 72 h viability; read-out: SJ3149
Experimental: as §1

[11] = tested on: MIA PaCa-2; conditions: Homo sapiens, MIA PaCa-2; 72 h viability; read-out: SJ3149
Experimental: as §1

[12] = tested on: COLO 829; conditions: Homo sapiens, COLO-829; 72 h viability; read-out: SJ3149
Experimental: as §1

[13] = tested on: Hs 766T; conditions: Hs766T; 72 h viability; read-out: SJ3149
Experimental: as §1

[14] = tested on: T24; conditions: Homo sapiens, T-24; 72 h viability; read-out: SJ3149
Experimental: as §1

[15] = tested on: 786-O; conditions: Homo sapiens, 786-0; 72 h viability; read-out: SJ3149
Experimental: as §1

[16] = tested on: PL-21; conditions: PL-21; 72 h viability; read-out: SJ3149
Experimental: as §1

[17] = tested on: THP-1; conditions: Homo sapiens, THP-1; 72 h viability; read-out: SJ3149
Experimental: as §1

[18] = tested on: AP-1060; conditions: 72 h viability; read-out: SJ3149
Experimental: as §1

[19] = tested on: SW480; conditions: Homo sapiens, SW480; 72 h viability; read-out: SJ3149
Experimental: as §1

[20] = tested on: TCCSUP; conditions: Homo sapiens, TCC-SUP; 72 h viability; read-out: SJ3149
Experimental: as §1

O=C1CCC(N2Cc3cc(Nc4noc5ccccc45)ccc3C2=O)C(=O)N1 (centres unmarked) [SJ3149]
IC50 [1]: > 31.6 µM
IC50 [2]: > 31.6 µM
IC50 [3]: > 31.6 µM
IC50 [4]: > 31.6 µM
IC50 [5]: > 31.6 µM
IC50 [6]: > 31.6 µM
IC50 [7]: > 31.6 µM
IC50 [8]: > 31.6 µM
IC50 [9]: > 31.6 µM
IC50 [10]: > 31.6 µM
IC50 [11]: > 31.6 µM
IC50 [12]: > 31.6 µM
IC50 [13]: > 31.6 µM
IC50 [14]: > 31.6 µM
IC50 [15]: > 31.6 µM
IC50 [16]: > 31.6 µM
IC50 [17]: > 31.6 µM
IC50 [18]: 0.00135 µM
IC50 [19]: > 31.6 µM
IC50 [20]: > 31.6 µM
